First: CCON=C(CC)C1=C(O)CC(c2c(C)c([N+](=O)[O-])c(C)c([N+](=O)[O-])c2C)CC1=O (configuration not stated)
Second: COC(=O)C1=C(C)Nc2c(c(C)nn2C)C1c1cccc([N+](=O)[O-])c1 (configuration not stated)
The melting point of the first is higher: 170 °C for the first, 163 to 166 °C for the second.

First: CCOc1c(Br)ccc(C(=O)CC(=O)C2CC2)c1N(C)S(C)(=O)=O
Second: CC(C)c1ccc(C(=O)C23CC4CC(CC(C4)C2)C3)c(C(C)C)c1OS(N)(=O)=O
The melting point of the first is lower: 120 to 122 °C for the first, 165 to 167 °C for the second.

First: CNC(=C[N+](=O)[O-])NCCCCCCCCCCCCNC(=C[N+](=O)[O-])NCCSCc1ccc(CN(C)C)o1
Second: CCCCCCCCCCCCCCCCC1=C(c2cn(C)c3ccccc23)C(=O)NC1=O
The melting point of the first is lower: 78 to 80 °C for the first, 112 to 114 °C for the second.

First: CCC(O)(CCCCO)C(=O)Nc1ccnc(Br)c1 (configuration not stated)
Second: OCCC(O)(c1ccc(Br)cc1)c1cccnc1 (configuration not stated)
The melting point of the first is lower: 103 °C for the first, 130 to 132 °C for the second.

First: Cc1c(O)c(=O)ccn1CCCO
Second: COC(=O)CCC(=O)c1ccc(O)c(Cl)c1
The melting point of the first is higher: 111 to 113 °C for the first, 85 to 89 °C for the second.

First: CC(C)(S)CN1CCC(CCO)CC1
Second: CCCCOC1CCCC(C2NC(=O)C2C(C)O[Si](C)(C)C(C)(C)C)C1O (configuration not stated)
The melting point of the first is lower: 42 °C for the first, 105 to 106 °C for the second.

Compared with `O=C(c1cc(Cl)cc(Cl)c1)N1CCc2cc(S(=O)(=O)N3CCN(c4cccc(Cl)c4)CC3)ccc21`, `CN(C)CCNC(=O)c1cccc(-c2ccc3c(c2)N(Cc2ccc(Cl)cc2Cl)CC3)c1` is lower in melting point: 262 to 263 °C for the first, 122 to 123 °C for the second.

`Cc1noc(C)c1-c1ccnc2[nH]c(-c3cn(C)c4ccc(C(=O)O)cc34)cc12` and `CC(C)c1cc(C(=O)Nc2ccc(C(=O)O)cn2)sc1C(C)C` cannot be ordered by melting point: greater than 305 °C for the first, greater than 300 °C for the second.

Compared with `CCOC(=O)n1nc(Oc2c(F)cc(C(F)(F)F)cc2Cl)cc1C`, `CS(=O)(=O)c1c(C#N)nn(-c2c(Cl)cc(C(F)(F)F)cc2Br)c1N` is higher in melting point: 127 to 129 °C for the first, 235 to 238 °C for the second.

Going from `C=C(OCC1(N2CCN(C(=O)OC(C)(C)C)CC2)Cc2ccccc2C1)c1cc(C)cc(C)c1` to `CCOC(=O)N1CCN(c2ccc(-n3cnn(C(CC)C(=O)c4ccc(Cl)cc4)c3=O)cn2)CC1` (configuration not stated), the melting point rises from 128 °C to 139 °C.

First: N#Cc1ccc2c(c1)C1OC1C1(CCCCC1)O2 (configuration not stated)
Second: COc1ccccc1C1(C(=O)O)CCCC1
The melting point of the first is higher: 222 to 225 °C for the first, 116 to 124 °C for the second.

First: O=C1c2ccccc2C(O)N1c1ccc2ccc(F)nc2n1 (configuration not stated)
Second: CC(=C1C(=O)N(c2cccc(C)c2)c2ccccc21)N(C)C
The melting point of the first is higher: 246 °C for the first, 96 to 99 °C for the second.

First: Cc1ccccc1-c1c(C2CCN(C)CC2)[nH]c(=O)c2ccccc12
Second: CN1CCc2nc3cc(Cl)ccc3c(Oc3ccccc3)c2C1
The melting point of the first is higher: 249 to 251 °C for the first, 138 to 139 °C for the second.

Compared with `Cn1nnnc1-c1cccc(Oc2cccc(C(F)(F)F)c2)n1`, `Cc1cccc(C)c1NC(=S)CC(=O)Nc1ccc(-c2ncn(-c3ccc(OC(F)(F)F)cc3)n2)cc1` is higher in melting point: 92 to 94 °C for the first, 178 to 182 °C for the second.

Going from `C=CC(O)c1ccc2[nH]c(CCCC)nc(=O)c2c1` (configuration not stated) to `COC(=O)Nc1nc2cc(C(N)c3ccccc3)ccc2[nH]1` (configuration not stated), the melting point rises from 141 °C to greater than 232 °C.

First: COC(=O)c1ccccc1NC(=O)c1ccc(Br)c(C)c1
Second: COC(=O)c1c(Cl)cc(Cl)cc1NC(=O)CSc1ccccc1C(=O)O
The melting point of the first is lower: 123 °C for the first, 165 to 166 °C for the second.

First: COc1cc(-c2nc(NC(C)(C)C)c3c(C)c(C#N)sc3n2)cc(OC)c1OC
Second: COc1cc(OC)c2c(=O)[nH]c(-c3cc(C)c(OCCN4CCCC4)c(C)c3)nc2c1
The melting point of the first is higher: 195 to 197 °C for the first, 181 to 183 °C for the second.

First: CNC(=O)NCCNCC(O)COc1ccc(OCCOCC(C)C)cc1 (configuration not stated)
Second: CCCCNC(=O)NC(=N)c1ccccc1
The melting point of the first is lower: 121 °C for the first, 139 to 141 °C for the second.

Compared with `CCOCCOc1ccc(CN/C=C2\C(=O)NC(=O)c3ccc(Br)cc32)cc1O`, `COC(=O)c1cc(CCc2cc(OC)ccc2OC)ccc1N` is lower in melting point: 179 to 180 °C for the first, 50 to 55 °C for the second.

First: CC(Cc1ccccc1)NC(=O)C(F)(F)F (configuration not stated)
Second: O=C(NC1=NN(c2ccc(Cl)cc2)C(c2ccccc2)C1)C(F)(F)F (configuration not stated)
The melting point of the first is lower: 82 to 83 °C for the first, 176 to 178 °C for the second.

Compared with `CCC(N)=C(C(C)=O)C(=O)N(CCN(C)C)c1cccc(F)c1`, `COC(=O)CCC(=O)c1ccc(-c2ccc(F)cc2)cc1` is higher in melting point: 96 to 97 °C for the first, 132 to 133 °C for the second.

Compared with `Cc1cc2c(s1)c(=O)c(C(N)=O)cn2C`, `NC(=O)c1cnc2n(c1=O)CCC2` is lower in melting point: 328 to 330 °C for the first, 293 °C for the second.

First: CCC(O)(c1ccc(O)cc1)c1ccc(Br)cc1 (configuration not stated)
Second: CC(O)(CCO)c1ccc(Oc2ccccc2)cc1 (configuration not stated)
The melting point of the first is higher: 161 to 162 °C for the first, 74 to 75 °C for the second.

First: CC(C)c1nc(C(O)(C(F)(F)F)C(F)(F)F)[nH]c1-c1ccccc1
Second: CC(C)Oc1nc(-c2ccc(Cl)cc2)c(CCC(=O)O)o1
The melting point of the first is lower: 80 to 81 °C for the first, 116 to 117 °C for the second.

Compared with `CC#CCOc1ccc(SC(C(=O)NO)c2ccccc2OC)cc1` (configuration not stated), `COc1ccc(C#CC(C)N(O)C(N)=O)cc1Oc1ccc(F)cc1` (configuration not stated) is lower in melting point: 172 to 173 °C for the first, 139 to 140 °C for the second.

First: NC(=O)c1ccc(OCCn2ccnc2)cc1
Second: O=C(O)c1ccc(OCCCCCCc2ccc3cc(O)c(O)cc3c2)cc1
The melting point of the first is lower: 148 to 149 °C for the first, 160 to 162 °C for the second.

First: COc1ccc(CCNC(=O)C(=O)O)cc1OC1CCCC1
Second: COC(=O)C1CCCN(COS(C)(=O)=O)c2c1cc(OCc1ccccc1)c1ccccc21 (configuration not stated)
The melting point of the first is lower: 123 to 124 °C for the first, 130 to 132 °C for the second.

First: CC=C1CCC2C3C(OC(C)=O)CC4CC(OC(C)=O)CCC4(C)C3CCC12C (configuration not stated)
Second: CN1CCC(C2(O)c3cc(Cl)ccc3CC2(C)C)CC1 (configuration not stated)
The melting point of the first is lower: 92 to 93 °C for the first, 181 to 182 °C for the second.

First: NNC(=O)c1ccc2c(c1)C(=C(Cl)Cl)OC(C(Cl)(Cl)Cl)O2 (configuration not stated)
Second: Cc1nc2cc(C(C)C(=O)O)ccc2o1 (configuration not stated)
The melting point of the first is higher: 182 to 183 °C for the first, 115 to 117 °C for the second.

Compared with `O=C(O)Cc1ccc2c(c1)C(=O)Cc1ccccc1C2`, `O=c1[nH]c2ccccc2nc1-c1ccc(Cl)cc1Cl` is higher in melting point: 171 to 173 °C for the first, 300 °C for the second.

First: CC(=O)c1ccc(SC2SCC(O)C(O)C2O)cc1 (configuration not stated)
Second: CC(=O)Nc1ccc(Sc2ccc(Cl)cc2)cc1
The melting point of the first is higher: 175 °C for the first, 140 to 141 °C for the second.

Compared with `CCCn1c(=O)n(C2OC(CO)C(O)C2O)c2nc(N)[nH]c(=O)c21` (configuration not stated), `COc1ccc(N2CCN(CCn3c(=O)[nH]c4cscc4c3=O)CC2)cc1` is higher in melting point: 151 to 153 °C for the first, 238 to 239 °C for the second.

First: CS(=O)c1[nH]cc(Cc2ccccc2)c1[N+](=O)[O-] (configuration not stated)
Second: Brc1cncc(OCc2ccccc2)c1
The melting point of the first is higher: 189 to 190 °C for the first, 65 to 67 °C for the second.

Compared with `CC(C)(C)OC(=O)Oc1ccc([N+](=O)[O-])cc1`, `Cc1ccc(S(=O)(=O)OC[C@@H]2CCCN(C)C2)cc1` is higher in melting point: 73 to 74.5 °C for the first, 74.5 to 81 °C for the second.

First: CN(C)CCNC(=O)c1ccccc1-c1nnc(CSCCOc2ccccc2)o1
Second: CC(C)CCNC(=O)c1ccccc1-c1ccccc1CNC(=O)Nc1ccccc1
The melting point of the first is lower: 80 to 85 °C for the first, 194 °C for the second.

Compared with `CCc1cc(COc2nn(Cc3ccccc3)cc2C=O)ccc1OCc1nc(-c2ccco2)oc1C`, `COc1ccccc1-c1cc(F)cc(OCc2ccc3c(-c4ccoc4)cc(C#N)nc3c2)c1` is higher in melting point: 128 to 129 °C for the first, 132 to 134 °C for the second.

First: O=C(CCc1nc2ccccc2s1)Nc1cc(N2CC(c3ccccc3)OC2=O)ccn1 (configuration not stated)
Second: CCOC(=O)C1(Cc2ccccc2)CC(=O)N(c2ccnc(NC(=O)NCc3ccccn3)c2)C1 (configuration not stated)
The melting point of the first is higher: 229 to 230 °C for the first, 158 to 160 °C for the second.

Compared with `COc1ccc2c(c1)C(O)=C(C(=O)Nc1cncc(Cl)n1)N(C)S2(=O)=O`, `COc1ccc(-c2nc(NC(=N)N3CCN(C)CC3)sc2-c2ccc(OC)cc2)cc1` is lower in melting point: 289 to 291 °C for the first, 161 to 162 °C for the second.

First: O=Cc1c(O)ccc2c1OCCO2
Second: CN(C)S(=O)(=O)c1cn(C)c2ccccc2c1=O
The melting point of the first is lower: 62 to 63 °C for the first, 225 to 226 °C for the second.

First: O=C(C[C@@H](CCCC1CCCCC1)c1nc(CNC2CCCC2)co1)NO
Second: O=C(CN1CCCC1=O)N1CCC(C2c3ncc(Br)cc3CCc3cc(Cl)cc(Br)c32)CC1 (single isomer, unassigned; (+))
The melting point of the first is higher: 124 to 127 °C for the first, 118 to 119 °C for the second.

First: CC(C)(C)NCCNC(=O)Cn1ncc(-c2ccccc2)c1-c1ccccc1
Second: CCN(CC)CCCNC(=O)Cn1ncc(-c2ccc(Cl)cc2)c1-c1ccccc1
The melting point of the first is higher: 115 to 116 °C for the first, 104 to 105 °C for the second.

First: CCCCCCCCCCCCCCCCCCOC(=O)c1ccc(C(=O)OCCCCCCCCCCCCCCCCCC)cc1
Second: CCCCCCCN(CCN1CCN(CCSc2nc3ncccc3o2)CC1)C(=O)Nc1c(C(C)C)cc(O)cc1C(C)C
The melting point of the first is higher: 140 °C for the first, 100 to 102 °C for the second.

Compared with `CCOC(=O)c1c[nH]c2nc(SCC)c(F)cc2c1=O`, `COC(=O)COc1c(F)cc(SCCNS(=O)(=O)c2ccc(Cl)cc2)cc1F` is lower in melting point: 280 to 284 °C for the first, 79.5 to 80.5 °C for the second.

First: O=C(c1cc(O)ccc1Nc1ccncc1)N1CCCCC1
Second: CCNc1nc2ccc(CCc3ccc(CN4CCCCC4)o3)cc2o1
The melting point of the first is higher: 242 to 243 °C for the first, 98 to 100 °C for the second.

Compared with `O=C(O)COc1cccnc1-c1ccc(Cl)c(C(=O)NCC23CC4CC(CC(C4)C2)C3)c1`, `CC(C)(C)[C@@H]1CCc2nc3sc(C(=O)N[C@H](CN)c4cccc(NC(=O)c5ccno5)c4)cc3cc2C1` is lower in melting point: 133 to 137 °C for the first, 98 to 102 °C for the second.

First: O=C(NC1CC1)C(Cl)Cl
Second: CC(C)OC(=O)c1cc(Cl)c(Cl)c(Cl)n1
The melting point of the first is higher: 130 to 132 °C for the first, 105 to 106 °C for the second.

First: Clc1cc(CCc2ccccn2)c2oc(-c3cccs3)nc2c1
Second: Clc1cc(CCc2ccccn2)c2oc(-c3cnc[nH]3)nc2c1
The melting point of the first is lower: 90 to 91 °C for the first, 202 to 209 °C for the second.

First: CCCCCCCOc1ccc(-c2ccc(N=Nc3ccc(N=Nc4ccc(N(C)C)cc4)cc3)cc2)cc1
Second: CC(=O)ONC(=N)c1ccc(-c2ccc(-c3ccc(C(=N)NOC(C)=O)nc3)o2)cc1
The melting point of the first is lower: 201 to 203 °C for the first, 266 to 268 °C for the second.

First: CC1(C)CC(=O)C2=C(C1)NC1=C(C(=O)CC(C)(C)C1)C2c1cccc(-n2ccnc2)c1
Second: O=C1Nc2ccccc2N2CCN(CCc3ccncc3)CC12 (configuration not stated)
The melting point of the first is higher: 286 to 288 °C for the first, 184 to 186 °C for the second.

Compared with `O=C(OC1Oc2ccccc2-n2cnc(-c3noc(C4CC4)n3)c21)c1ccccc1` (configuration not stated), `c1ccc(NCC2Oc3ccccc3O2)cc1` is lower in melting point: 165 to 167 °C for the first, 70 to 72 °C for the second.

Compared with `N#Cc1cc(F)c(N)c(Br)c1F`, `Cc1nc2cc(Cn3ccnc3)ccc2n1Cc1cccnc1` is higher in melting point: 106 to 108 °C for the first, 174 °C for the second.
